# Data from patent US7572809B2, “Isoquinoline aminopyrazole derivatives” (Hoffmann-La Roche Inc., priority 2005, dated 2009).
# Biological target: T1, Aurora A kinase (Homo sapiens, UniProt O14965)
# T1 sequence (O14965 1-403): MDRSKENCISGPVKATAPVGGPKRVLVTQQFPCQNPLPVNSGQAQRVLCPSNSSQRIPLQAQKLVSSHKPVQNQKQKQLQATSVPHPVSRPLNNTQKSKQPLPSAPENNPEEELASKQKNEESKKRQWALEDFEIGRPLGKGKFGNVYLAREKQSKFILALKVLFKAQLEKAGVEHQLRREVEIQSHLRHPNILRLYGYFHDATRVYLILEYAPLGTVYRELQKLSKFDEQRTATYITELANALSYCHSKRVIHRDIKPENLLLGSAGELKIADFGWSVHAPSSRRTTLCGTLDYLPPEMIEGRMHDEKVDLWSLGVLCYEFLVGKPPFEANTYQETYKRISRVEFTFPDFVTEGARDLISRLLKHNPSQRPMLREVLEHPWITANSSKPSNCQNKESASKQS
# Assay: IC50 determination for inhibitors of Aurora A kinase (ELISA, GST-Histone H3 substrate)
# Format: biochemical
# Conditions: mutant Aurora A kinase, 30 μM ATP, 40 minutes; read-out: IC50 Aurora A kinase inhibition
# Protocol: IC50 Determination for Inhibitors of Aurora A Kinase
# Aurora A is a Serine Threonine Kinase Involved in Spindle Assembly and Chromosome Segregation.
# The assay is a typically ELISA-type assay where substrate (GST-Histone H3) is coupled to the assay-plate and is phosphorylated by the kinase. Phosphorylation is detected by a mouse anti-Phosphopeptid mAb and an HRP-labeled anti-mouse pAb. The assay is validated for IC50-determination.
# Kinase activities were measured by Enzyme-Linked Immunosorbent Assay (ELISA): Maxisorp 384-well plates (Nunc) were coated with recombinant fusion protein comprising residues 1-15 of HistoneH3 fused to the N-terminus of Glutathione-S-Transferase. Plates were then blocked with a solution of 1 mg/mL I-block (Tropix cat# T2015—highly purified form of casein) in phosphate-buffered saline. Kinase reactions were carried out in the wells of the ELISA plate by combining an appropriate amount of mutant Aurora A kinase with test compound and 30 μM ATP. The reaction buffer was […] Kinase Buffer (Cell Signaling cat # 9802) supplemented with 1 μg/mL I-block. Reactions were stopped after 40 minutes by addition of 25 mM EDTA (ethylenediaminetetraacetic acid). After washing, substrate phosphorylation was detected by addition of anti-phospho-Histone H3 (Ser 10) 6G3 mAb (Cell Signaling cat #9706) and sheep anti-mouse pAb-HRP (Amersham cat# NA931V), followed by colorimetric development with TMB (3,3′,5,5′-tetramethylbenzidine from Kirkegaard & Perry Laboratories). After readout of the absorbance, IC50 values were calculated using a non-linear curve fit (XLfit® software (ID Business Solution Ltd., Guilford, Surrey, UK)).
row,SMILES,IC50 [µM]
1,"Cc1ccc(Oc2nc(Nc3cc(C)[nH]n3)cc3ccccc23)cc1 [Example 14, (5-Methyl-1H-pyrazol-3-yl)-(1-p-tolyloxy-isoquinolin-3-yl)-amine]",0.066
2,"Cc1cc(Nc2cc3ccccc3c(Oc3ccccc3Cl)n2)n[nH]1 [Example 23, [1-(2-Chloro-phenoxy)-isoquinolin-3-yl]-(5-methyl-1H-pyrazol-3-yl)-amine]",1.66
3,"CC(=O)Nc1ccc(Oc2nc(Nc3cc(C)[nH]n3)cc3ccccc23)cc1 [Example 59, N-{4-[-3-(5-Methyl-1H-pyrazol-3-ylamino)-isoquinolin-1-yloxy]-phenyl}-acetamide]",0.039
4,"CC(C)COc1nc(Nc2cc[nH]n2)cc2ccccc12 [Example 99, (1-Isobutoxy-isoquinolin-3-yl)-(1H-pyrazol-3-yl)-amine]",1.46
5,"CCOCCOCCOc1nc(Nc2cc[nH]n2)cc2ccccc12 [Example 110, {1-[2-(2-Ethoxy-ethoxy)-ethoxy]-isoquinolin-3-yl}-(1H-pyrazol-3-yl)-amine]",0.822
6,"COc1cc2cc(Nc3cc(C)[nH]n3)nc(OC3CCCC3)c2cc1OC [Example 117, (1-Cyclopentyloxy-6,7-dimethoxy-isoquinolin-3-yl)-(5-methyl-1H-pyrazol-3-yl)-amine]",0.021
7,"COc1ccc2c(-c3cnn(C)c3)nc(Nc3cc[nH]n3)cc2c1 [Example 135, [6-Methoxy-1-(1-methyl-1H-pyrazol-4-yl)-isoquinolin-3-yl]-(1H-pyrazol-3-yl)-amine]",0.653
8,"Cc1cc(Nc2cc3ccccc3c(-c3ccncc3)n2)n[nH]1 [Example 162, (5-Methyl-1H-pyrazol-3-yl)-(1-pyridin-4-yl-isoquinolin-3-yl)-amine]",0.33
9,"COc1ccc2c(-c3ccc4ccccc4c3)nc(Nc3cc(C)[nH]n3)cc2c1 [Example 183, (5-Methyl-1H-pyrazol-3-yl)-(1-naphthalen-2-yl-6-methoxy-isoquinolin-3-yl)-amine]",0.39
10,"COc1cccc2c(-c3cccc(C#N)c3)nc(Nc3cc(C)[nH]n3)cc12 [Example 201, 3-[3-(5-Methyl-1H-pyrazol-3-ylamino)-5-methoxy-isoquinolin-1-yl]-benzonitrile]",0.047
11,"c1ccc2c(-c3ccsc3)nc(Nc3cc[nH]n3)cc2c1 [Example 241, (1H-Pyrazol-3-yl)-(1-thiophen-3-yl-isoquinolin-3-yl)-amine]",0.946

# The next lines start with the values.
row,IC50 [µM],SMILES
1,3.44,"c1ccc2c(-c3ccncc3)nc(Nc3cc[nH]n3)cc2c1 [Example 248, (1H-Pyrazol-3-yl)-(1-pyridin-4-yl-isoquinolin-3-yl)-amine]"
2,2.97,"COc1ccc2c(-c3ccc4ccccc4c3)nc(Nc3cc[nH]n3)cc2c1 [Example 265, (6-Methoxy-1-naphthalen-2-yl-isoquinolin-3-yl)-(1H-pyrazol-3-yl)-amine]"
3,0.043,"COc1ccc2c(Nc3ccc(Br)cc3)nc(Nc3cc(C)[nH]n3)cc2c1 [Example 275, N^1-(4-Bromo-phenyl)-6-methoxy-N^3-(5-methyl-1H-pyrazol-3-yl)-isoquinoline-1,3-diamine]"
4,0.259,"COc1ccc(Nc2nc(Nc3cc[nH]n3)cc3ccccc23)cc1OC [Example 284, N^1-(3,4-Dimethoxy-phenyl)-N^3-(1H-pyrazol-3-yl)-isoquinoline-1,3-diamine]"
5,0.241,"Cc1cc(Nc2cc3ccccc3c(Nc3cccnc3)n2)n[nH]1 [Example 292, N^3-(5-methyl-1H-pyrazol-3-yl)-N^1-pyridin-3-yl-isoquinoline-1,3-diamine]"
6,0.297,"Cc1cc(Nc2cc3cc(OCCN4CCOCC4)ccc3c(-c3ccccc3)n2)n[nH]1 [Example 299, (5-Methyl-1H-pyrazol-3-yl)-[6-(2-morpholin-4-yl-ethoxy)-1-phenyl-isoquinolin-3-yl]-amine]"
7,0.497,"Cc1cc(Nc2cc3ccccc3c(Sc3ccccc3)n2)n[nH]1 [Example 305, (5-Methyl-1H-pyrazol-3-yl)-(1-phenylsulfanyl-isoquinolin-3-yl)-amine]"
8,0.21,"COc1ccc2c(Sc3cccc(F)c3)nc(Nc3cc(C)[nH]n3)cc2c1 [Example 311, [1-(3-Fluoro-phenylsulfanyl)-6-methoxy-isoquinolin-3-yl]-(5-methyl-1H-pyrazol-3-yl)-amine]"

# Test system: HCT 116 cells
# Assay: Viability assay in HCT 116 cells (CellTiter-Glo)
# Format: cell-based
# Conditions: 120 h; HCT 116 human colon carcinoma cells, 5 days incubation
# Protocol: Viability Assay in HCT 116 Cells
# A viability assay was performed using the CellTiter-Glo® Luminescent Cell Viability Assay (see Promega Corporation's Technical Bulletin No. 288, pp. 1-11 [revised February, 2004] which is hereby incorporated by reference in its entirety). This assay is a homogeneous method of determining the number of viable cells in culture based on quantitation of the ATP present, an indicator of metabolically active cells. The assay is designed for use with multiwell formats, making it ideal for automated high-throughput screening (HTS), cell proliferation and cytotoxicity assays. The homogeneous assay procedure involves adding a single reagent (containing luciferase, luciferan substrate, and buffer) directly to cells cultured in serum-supplemented medium. Cell washing, removal of medium and multiple pipetting steps are not required. The system detects as few as 15 cells/well in a 384-well format in 10 minutes after adding reagent and mixing.
# The homogeneous “add-mix-measure” format results in cell lysis and generation of a luminescent signal proportional to the amount of ATP present. The amount of ATP is directly proportional to the number of cells present in culture. The above-referenced assay generates a “glow-type” luminescent signal, produced by the luciferase reaction, which has a half-life generally greater than five hours, depending on cell type and medium used. The extended half-life eliminates the need to use reagent injectors and provides flexibility for continuous or batch mode processing of multiple plates. The unique homogeneous format avoids errors that may be introduced by other ATP measurement methods that require multiple steps.
# HCT 116 cells (human colon carcinoma, ATCC-No. CCl-247) were cultivated in RPMI 1640 medium with GlutaMAX™ I (cell culture media that contains L-Alanyl-L-Glutamine [a stabilized form/source of L-Glutamine] from Invitrogen, Cat-No. 61870-010), 5% Fetal Calf Serum (FCS, Sigma Cat-No. F4135 (FBS)); 100 Units/ml penicillin/100 μg/ml streptomycin (=Pen/Strep from Invitrogen Cat. No. 15140). For the assay the cells were seeded in 384 well plates, 1000 cells per well, in the same medium. The next day the test compounds were added in various concentrations ranging from 30 μM to 0.0015 μM (10 concentrations, 1:3 diluted). After 5 days the viability assay was performed according to the instructions of the manufacturer. In brief: the cell-plate was equilibrated to room temperature for approximately 30 minutes and then the CellTiter-Glo™ reagent (which contains luciferase, luciferan substrate, and buffer) was added. The contents were carefully mixed for 15 minutes to induce cell lysis. After 45 minutes the luminescent signal was measured in Victor 2, (scanning multiwell spectrophotometer, Wallac).
# 1st. Day: • Medium: RPMI 1640 with GlutaMAX™ I (Invitrogen, Cat-No. 61870), 5% FCS (Sigma Cat.-No. F4135), Pen/Strep (Invitrogen, Cat No. 15140). • HCT116 (ATCC-No. CCl-247): 1000 cells in 60 μl per well of 384 well plate (Greiner 781098, μClear-plate white) • After seeding incubate plates 24 h at 37° C., 5% CO2 2nd. Day: Induction (Treatment with Compounds, 10 Concentrations):
# In order to achieve a final concentration of 30 μM as highest concentration 3.5 μl of 10 mM compound stock solution were added directly to 163 μl media. Then step e) of the dilution procedure described below, was followed.
# In order to achieve the second highest to the lowest concentrations, a serial dilution with dilution steps of 1:3 was followed according to the procedure (a-e) as described here below: a) for the second highest concentration add 10 μl of 10 mM stock solution of compound to 20 μl dimethylsulfoxide (DMSO) b) dilute 8×1:3 (always 10 μl to 20 μl DMSO) in this DMSO dilution row (results in 9 wells with concentrations from 3333.3 μM to 0.51 μM) c) dilute each concentration 1:47.6 (3.5 μl compound dilution to 163 μl media) […]
row,IC50 [µM],SMILES
1,0.666,"COc1cc2cc(Nc3cc(C)[nH]n3)nc(OC3CCCC3)c2cc1OC [Example 117, (1-Cyclopentyloxy-6,7-dimethoxy-isoquinolin-3-yl)-(5-methyl-1H-pyrazol-3-yl)-amine]"
2,4.01,"COc1ccc2c(-c3ccc4ccccc4c3)nc(Nc3cc(C)[nH]n3)cc2c1 [Example 183, (5-Methyl-1H-pyrazol-3-yl)-(1-naphthalen-2-yl-6-methoxy-isoquinolin-3-yl)-amine]"
3,0.995,"COc1ccc2c(Nc3ccc(Br)cc3)nc(Nc3cc(C)[nH]n3)cc2c1 [Example 275, N^1-(4-Bromo-phenyl)-6-methoxy-N^3-(5-methyl-1H-pyrazol-3-yl)-isoquinoline-1,3-diamine]"
